Among the test systems are CCRF-CEM leukemia; OVCAR-3 ovarian; SK-MEL-2 melanoma; K-562 leukemia; NCI/ADR-RES ovarian; SK-MEL-5 melanoma; MCF7 breast; SK-MEL-28 melanoma; SNB-75 CNS; SNB-19 CNS.
Holding throughout (assay): NCI tumour cell line growth inhibition, 48 h

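1) Cells in 96-well plates. 2) Compound, 48 h, 5 concentrations. 3) Linear interpolation between surrounding doses. 4) Unreached endpoint = highest concentration. Here, GI50 denotes the concentration required for 50% inhibition of growth. TGI is the concentration that stops growth completely.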

With `NS(=O)(=O)c1ccc(N(/C=C/C(=O)C(F)(F)F)Cc2ccc(Cl)cc2)cc1`, the GI50 in the assay on CCRF-CEM leukemia is 16 µM; with OVCAR-3 ovarian, 30.3 µM; with SK-MEL-2 melanoma, 27.2 µM; with K-562 leukemia, 38.9 µM; with NCI/ADR-RES ovarian, 15.3 µM; in the assay on SK-MEL-5 melanoma, 19.2 µM. In addition, the GI50 in the assay with MCF7 breast is 93.9 µM; in the assay with SK-MEL-28 melanoma, 29.3 µM; with SNB-75 CNS, 32.2 µM; in the assay with SNB-19 CNS, 41.9 µM. In addition, the TGI in the assay on CCRF-CEM leukemia is 40.3 µM; in the assay on OVCAR-3 ovarian, greater than 100 µM; in the assay on SK-MEL-2 melanoma, 62 µM; in the assay on K-562 leukemia it was greater than 100 µM; with NCI/ADR-RES ovarian, 54.9 µM; in the assay with SK-MEL-5 melanoma, 38 µM. The TGI with MCF7 breast is greater than 100 µM; in the assay with SK-MEL-28 melanoma it was greater than 100 µM; in the assay on SNB-75 CNS it was 65.1 µM; with SNB-19 CNS, greater than 100 µM.
As to `O=C1c2ccccc2-c2c1c1c(O)cccc1n2Cc1ccccn1`, the GI50 was 29.5 µM in the assay on CCRF-CEM leukemia; 20.1 µM with OVCAR-3 ovarian; greater than 100 µM in the assay with SK-MEL-2 melanoma; 18.3 µM in the assay on K-562 leukemia; 43.2 µM in the assay with NCI/ADR-RES ovarian; 8.77 µM in the assay on SK-MEL-5 melanoma. Further, the GI50 was 62.4 µM in the assay with MCF7 breast, greater than 100 µM with SK-MEL-28 melanoma, greater than 100 µM in the assay with SNB-75 CNS and greater than 100 µM in the assay with SNB-19 CNS. Besides, the TGI with CCRF-CEM leukemia is greater than 100 µM; in the assay on OVCAR-3 ovarian, 69.4 µM; in the assay on SK-MEL-2 melanoma, greater than 100 µM; in the assay with K-562 leukemia it was 79 µM; with NCI/ADR-RES ovarian it was greater than 100 µM; with SK-MEL-5 melanoma, greater than 100 µM. The TGI in the assay on MCF7 breast, in the assay with SK-MEL-28 melanoma, in the assay on SNB-75 CNS and in the assay with SNB-19 CNS was greater than 100 µM each time.
`CN(C)CCNc1c2ccccc2nc2oc3ccccc3c12`: the TGI in the assay with CCRF-CEM leukemia was 0.0412 µM; in the assay with OVCAR-3 ovarian it was 51 µM; in the assay on SK-MEL-2 melanoma it was 31.4 µM; in the assay with K-562 leukemia it was greater than 100 µM; in the assay on NCI/ADR-RES ovarian, greater than 100 µM; in the assay on SK-MEL-5 melanoma it was 20.5 µM. Further, the TGI in the assay on MCF7 breast came to 16.1 µM; in the assay with SK-MEL-28 melanoma it was 25.3 µM; in the assay with SNB-75 CNS, 25.8 µM; in the assay with SNB-19 CNS, 34.8 µM. Also, the GI50 with OVCAR-3 ovarian is 8.71 µM; in the assay on SK-MEL-2 melanoma, 12.2 µM; with K-562 leukemia, 5.22 µM; with NCI/ADR-RES ovarian, 9 µM; in the assay on SK-MEL-5 melanoma, 8.09 µM; in the assay with MCF7 breast, 4.07 µM. The GI50 with SK-MEL-28 melanoma is 11.8 µM; in the assay with SNB-75 CNS it was 12.5 µM; with SNB-19 CNS, 6.88 µM.
In the case of `C=C1C(=O)O[C@H]2[C@H]1CC/C(COC(=O)C(C)c1ccc(CC(C)C)cc1)=C\CC[C@@]1(C)O[C@@H]21` (some centres undefined), the GI50 in the assay with CCRF-CEM leukemia was 0.228 µM; in the assay with OVCAR-3 ovarian, 1.5 µM; in the assay on SK-MEL-2 melanoma, 1.89 µM; in the assay on K-562 leukemia it was 0.359 µM; in the assay with NCI/ADR-RES ovarian, 1.85 µM; in the assay with SK-MEL-5 melanoma it was 1.6 µM. In addition, the GI50 with MCF7 breast was 0.791 µM; in the assay on SK-MEL-28 melanoma, 1.63 µM; in the assay with SNB-75 CNS, 1.68 µM; in the assay on SNB-19 CNS, 1.49 µM. For the same compound, the TGI came out at 1.03 µM in the assay on CCRF-CEM leukemia; 2.87 µM in the assay with OVCAR-3 ovarian; 3.72 µM in the assay with SK-MEL-2 melanoma; 1.96 µM in the assay with K-562 leukemia; 5.54 µM in the assay with NCI/ADR-RES ovarian; 2.96 µM with SK-MEL-5 melanoma. The TGI in the assay with MCF7 breast was determined as 2.49 µM; with SK-MEL-28 melanoma, 3 µM; with SNB-75 CNS it was 3.16 µM; in the assay on SNB-19 CNS, 2.87 µM.
Turning to `O=C1OC(=O)C2CCCC3CCCC1C32` (centres undefined), the TGI with CCRF-CEM leukemia, with OVCAR-3 ovarian, in the assay with SK-MEL-2 melanoma, in the assay on K-562 leukemia, in the assay with NCI/ADR-RES ovarian and in the assay with SK-MEL-5 melanoma was greater than 100 µM each time. Besides, the TGI in the assay with MCF7 breast, in the assay with SK-MEL-28 melanoma, with SNB-75 CNS and in the assay with SNB-19 CNS was greater than 100 µM throughout.
Regarding `CC(=O)O[C@H]1[C@@H]2OC(=O)C(CSc3ccccc3)[C@@H]2C[C@H]2O[C@]2(C)CC/C=C(\C)CCC[C@@H]1C` (some centres undefined), the GI50 in the assay on CCRF-CEM leukemia is 2.17 µM; in the assay on OVCAR-3 ovarian, 1.87 µM; with SK-MEL-2 melanoma it was 3.11 µM; with K-562 leukemia, 2.15 µM; in the assay on NCI/ADR-RES ovarian, 2.99 µM; in the assay on SK-MEL-5 melanoma, 2.57 µM. Besides, the GI50 was 2.62 µM in the assay with MCF7 breast, 1.91 µM in the assay with SK-MEL-28 melanoma, 2.98 µM with SNB-75 CNS and 11.9 µM in the assay with SNB-19 CNS. In addition, the TGI with CCRF-CEM leukemia was greater than 21.1 µM; in the assay on OVCAR-3 ovarian, 4.11 µM; in the assay on SK-MEL-2 melanoma it was 8.69 µM; in the assay with K-562 leukemia, greater than 24.6 µM; in the assay on NCI/ADR-RES ovarian, 32 µM; with SK-MEL-5 melanoma, 8.65 µM. The TGI in the assay with MCF7 breast is 12 µM; in the assay with SK-MEL-28 melanoma, 3.93 µM; in the assay on SNB-75 CNS it was 11.6 µM; in the assay on SNB-19 CNS, 62.8 µM.
Consider `CC1=C(/C=C/C(C)=C/C=C/C(C)=C/C(=O)O)C(C)(C)CCC1`, for which the TGI in the assay on CCRF-CEM leukemia is 70.8 µM; in the assay on OVCAR-3 ovarian, 63.9 µM; with SK-MEL-2 melanoma it was 48.8 µM; in the assay on K-562 leukemia it was greater than 79.9 µM; with NCI/ADR-RES ovarian, 70 µM; in the assay with SK-MEL-5 melanoma it was 63.3 µM. Further, the TGI with MCF7 breast was greater than 77.9 µM; in the assay on SK-MEL-28 melanoma it was greater than 82.2 µM; in the assay on SNB-75 CNS, greater than 100 µM; with SNB-19 CNS, greater than 84.6 µM.
On to `O=C1C2CCN(CC2)C1(CO)CO`, for which the TGI is 32.2 µM with CCRF-CEM leukemia; 31 µM in the assay with OVCAR-3 ovarian; greater than 100 µM in the assay on SK-MEL-2 melanoma; 54.5 µM in the assay with K-562 leukemia; 60 µM in the assay on NCI/ADR-RES ovarian; greater than 73.3 µM in the assay with SK-MEL-5 melanoma. Further, the TGI with MCF7 breast was 66.4 µM; in the assay on SK-MEL-28 melanoma, 44.5 µM; with SNB-75 CNS it was greater than 81.8 µM; in the assay on SNB-19 CNS, greater than 100 µM.
Regarding `CN(Cc1cc(Br)cc(Br)c1O)Cc1c(O)ccc2ccccc12`, the TGI is 60.6 µM in the assay with CCRF-CEM leukemia; 31.8 µM in the assay on OVCAR-3 ovarian; 35.6 µM with SK-MEL-2 melanoma; 51.9 µM in the assay with K-562 leukemia; greater than 100 µM in the assay with NCI/ADR-RES ovarian; 33.1 µM with SK-MEL-5 melanoma. Besides, the TGI in the assay on MCF7 breast came out at 58.3 µM; with SK-MEL-28 melanoma it was 44.2 µM; with SNB-75 CNS, 39.1 µM; in the assay with SNB-19 CNS, 38.9 µM.
On to `Cc1cc(-c2ccccn2)cc(C)c1/C=C/c1cncc(-c2nn[nH]n2)c1`, for which the GI50 in the assay with CCRF-CEM leukemia, in the assay with OVCAR-3 ovarian, in the assay with SK-MEL-2 melanoma, with K-562 leukemia, in the assay on NCI/ADR-RES ovarian and in the assay with SK-MEL-5 melanoma was greater than 25 µM throughout. The GI50 in the assay with MCF7 breast, with SK-MEL-28 melanoma, with SNB-75 CNS and in the assay with SNB-19 CNS was greater than 25 µM each time. In addition, the TGI with CCRF-CEM leukemia, in the assay on OVCAR-3 ovarian, in the assay with SK-MEL-2 melanoma, in the assay with K-562 leukemia, in the assay on NCI/ADR-RES ovarian and in the assay with SK-MEL-5 melanoma was greater than 25 µM throughout. The TGI in the assay with MCF7 breast, in the assay with SK-MEL-28 melanoma, in the assay on SNB-75 CNS and in the assay on SNB-19 CNS was greater than 25 µM each time.

Source of the values: PubChem BioAssay (NCI).
